Measured values as given in ChEMBL document CHEMBL1158292, “Progress in the discovery of biosynthetic anticancer drugs” (1996).

Experiments:
Type in all cases: functional
[1] = Growth inhibition of human breast cancer cells at 10^-10 M; settings: Cancer cell lines, read-out: GI
[2] = Growth inhibition of human renal cancer cells at 10^-10 M; settings: Cancer cell lines, read-out: GI
[3] = Growth inhibition of human colon cancer cells at 10^-10 M; settings: Cancer cell lines, read-out: GI
OVCAR-3 = assay: In vivo antineoplastic activity against human OVCAR-3 cells at 25 ug/kg
[4] = Growth inhibition of human lung cancer cells at 10^-10 M; settings: Cancer cell lines, read-out: GI
[5] = Growth inhibition of human ovarian cancer cells at 10^-10 M; settings: Cancer cell lines, read-out: GI
P388 [6] = assay: Antineoplastic activity against mouse P388 cells
B16 = assay: In vivo antineoplastic activity against mouse B16 cells at 11 ug/kg
P388 [7] = assay: Antineoplastic activity against mouse P388 cells at 3 mg/kg relative to control
P388 [8] = assay: Antineoplastic activity against mouse P388 cells at 12.5 mg/kg relative to control
P388 [9] = assay: Antineoplastic activity against mouse P388 cells at 32 mg/kg relative to control
P388 [10] = assay: Antineoplastic activity against mouse P388 cells at 100 mg/kg relative to control

C=C(Cl)/C=C/[C@H](O)CC(=C)C[C@H]1O[C@@H]2[C@H](C)[C@@H](OC(=O)C[C@@H]3C[C@@H](OC(C)=O)C[C@]4(C[C@](C)(O)C[C@@H](CC(=C)[C@H](C)[C@@H](OC(C)=O)[C@H](C)C(=O)C[C@H]5C[C@@H](OC)C[C@]6(C[C@H](O)C[C@@H](/C=C\CCC[C@@H]7O[C@@](O)(C[C@@H](O)[C@@H]7C)[C@H]2O)O6)O5)O4)O3)[C@@H]1O
inhibition of growth at 0.0001 µM [1]: 50%
inhibition of growth at 0.0001 µM [2]: 50%
inhibition of growth at 0.0001 µM [3]: 50%
Activity (OVCAR-3): 70%
inhibition of growth at 0.0001 µM [4]: 50%
inhibition of growth at 0.0001 µM [5]: 50%

C[C@@H]1[C@]2(O[C@H]3C=C4[C@@H]5CC[C@H]6Cc7nc8c(nc7C[C@]6(C)[C@H]5C[C@@H](O)[C@]4(C)[C@]31O)C[C@@H]1CC[C@H]3C4=CC[C@@H]5[C@H](C)[C@@]6(OC[C@]45C(=O)C[C@@H]3[C@@]1(C)C8)OC(C)(C)C[C@H]6O)O[C@](C)(CO)C[C@H]2O [CEPHALOSTATIN 1]
ED50 (P388 [6]): 1 ×10⁻⁹ ug/ml

CC[C@H](C)[C@@H]([C@@H](CC(=O)N1CCC[C@H]1[C@H](OC)[C@@H](C)C(=O)N[C@@H](Cc1ccccc1)c1nccs1)OC)N(C)C(=O)[C@@H](NC(=O)[C@H](C(C)C)N(C)C)C(C)C [DOLASTATIN-10]
Activity (B16): 80%

C=C1C(=O)O[C@@H]2C[C@@H](C)[C@@H]3C=CC(=O)[C@@]3(C)[C@@H](O)[C@H]12 [HELENALIN]
T/C (P388 [7]): 220

C=C1C(=O)O[C@@H]2[C@H](O)[C@@H](C)[C@@H]3C=CC(=O)[C@@]3(C)[C@@H](OC(=O)/C(C)=C\C)[C@H]12 [MULTIGILIN]
T/C (P388 [8]): 164

C=C1C(=O)O[C@@H]2C(=O)[C@@H](C)[C@@H]3C=CC(=O)[C@@]3(C)[C@@H](OC(=O)/C(C)=C\C)[C@H]12 [MULTISTATIN]
T/C (P388 [9]): 131

NCCS(=O)(=O)O [TAURINE]
T/C (P388 [10]): 123
